Reference: patent US6689805B2, “Pyrazole-3-one derivative, method for preparing the same, and pharmaceutical composition containing the same” (CJ Corp., priority 2002, dated 2004)

Columns and labels:
COX-2 = molecular target: T1, COX-2 (Mus musculus, UniProt Q05769); experiment: Assay for the COX-2 inhibitory activity using RAW 264.7 cell line (PGE2 inhibition); assay type: cell-based; settings: RAW264.7, test compound 10 nM, RAW 264.7 cells, interferon + LPS induced, read-out: Cyclooxygenase (COX) Inhibition (%) COX-2 (10 nM)
T1 construct: endogenous in cells
T1 sequence (Q05769 18-604): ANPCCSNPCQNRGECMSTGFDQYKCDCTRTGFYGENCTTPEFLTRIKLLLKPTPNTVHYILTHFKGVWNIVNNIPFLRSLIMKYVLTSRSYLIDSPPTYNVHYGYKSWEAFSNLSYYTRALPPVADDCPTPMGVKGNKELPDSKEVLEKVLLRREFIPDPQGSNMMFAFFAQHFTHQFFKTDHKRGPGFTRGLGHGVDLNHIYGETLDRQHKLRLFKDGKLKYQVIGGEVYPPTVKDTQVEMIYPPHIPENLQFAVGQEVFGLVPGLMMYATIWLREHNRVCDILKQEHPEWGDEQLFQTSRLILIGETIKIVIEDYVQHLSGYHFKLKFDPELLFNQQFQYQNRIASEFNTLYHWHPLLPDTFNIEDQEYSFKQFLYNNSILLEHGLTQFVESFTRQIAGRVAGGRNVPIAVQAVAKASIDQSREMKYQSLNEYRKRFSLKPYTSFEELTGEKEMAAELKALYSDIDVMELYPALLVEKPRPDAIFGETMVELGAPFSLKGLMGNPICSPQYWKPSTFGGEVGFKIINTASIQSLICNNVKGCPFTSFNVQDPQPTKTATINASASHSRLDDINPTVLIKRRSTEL
Method: Each well was treated with 250 μM of aspirin and incubated at 37° C. for 2 hours. After the culture media were replaced with new culture media, the new culture media were treated with a test compound (10 nM) and incubated for 30 minutes. Then, each well was treated with interferon ? (100 units/ml) and lipopolysaccharide (LPS, 100 ng/ml) and incubated for 18 hours. The culture media were transferred to other test tubes. The concentration of PGE2 was quantified by means of the EIA kit (Cayman Chemicals).
(§1) The percentages of the COX inhibition were calculated according to the following equation:
(§2) % Inhibition=(concentration of PGE2 in test compound-untreated sample−concentration of PGE2 in test compound-treated sample) / (concentration of PGE2 in test compound-untreated sample)×100

COX-1 = molecular target: T2, COX-1 (Homo sapiens, UniProt P23219); experiment: Assay for the COX-1 inhibitory activity using U-937 (PGE2 inhibition); assay type: cell-based; settings: test compound 1 μM; U-937 human lymphoma cells; PGE2 vs DMSO control; read-out: Cyclooxygenase (COX) Inhibition (%) COX-1 (1 μM)
T2 construct: endogenous in cells
Method: The collected cells were diluted with HBSS (x1, Hank's balanced salt solution) to a concentration of 1×10^6 cells/ml. 1 ml of the dilute cell solution was placed into each well of 12-well plates. 5 μl of 1 μM solution of a test compound in DMSO and 5 μl of DMSO as a control were added to the wells. The wells were incubated in CO2 incubator at 37° C. for 15 minutes. Separately, 10 mM stock solution of arachidonic acid in ethanol was diluted ten times in ethanol to prepare 1 mM solution of arachidonic acid. Arachidonic acid acts as a substrate. 10 μl of the 1 mM solution of arachidonic acid was added to each well and incubated at CO2 incubator at 37° C. for 30 minutes. The cell solution of each well was placed in a centrifuge test tube and centrifuged at 10,000 rpm at 4° C. for 5 minutes. The concentration of PGE2 in the collected cells and the supernatant was quantified by means of a monoclonal kit (Cayman Chemicals). The percentages of PGE2 inhibition in a group of the test compound-treated cells in relation to a group of the DMSO-treated cells were calculated. Based on the calculated values, the COX-1 inhibitory activities were evaluated.
as §1, §2

T2 sequence (P23219 24-599): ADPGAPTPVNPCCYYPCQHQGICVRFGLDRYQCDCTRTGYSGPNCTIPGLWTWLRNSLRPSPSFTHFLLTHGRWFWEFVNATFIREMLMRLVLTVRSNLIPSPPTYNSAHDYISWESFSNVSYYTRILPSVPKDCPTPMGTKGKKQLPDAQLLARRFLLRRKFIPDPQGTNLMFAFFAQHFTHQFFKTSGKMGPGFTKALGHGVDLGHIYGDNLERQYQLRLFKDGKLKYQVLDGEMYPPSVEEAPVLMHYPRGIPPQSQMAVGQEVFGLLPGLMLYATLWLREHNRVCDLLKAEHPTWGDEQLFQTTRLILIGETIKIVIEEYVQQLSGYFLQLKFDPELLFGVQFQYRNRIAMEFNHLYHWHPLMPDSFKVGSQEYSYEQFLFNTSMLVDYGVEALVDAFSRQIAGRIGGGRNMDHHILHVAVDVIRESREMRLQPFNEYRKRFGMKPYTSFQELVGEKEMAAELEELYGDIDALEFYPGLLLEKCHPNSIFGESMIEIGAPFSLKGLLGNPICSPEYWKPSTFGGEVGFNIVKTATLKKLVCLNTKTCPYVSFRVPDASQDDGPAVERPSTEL

inhibition at 0.01 µM (COX-2) [%] | inhibition at 1 µM (COX-1) [%] | melting point [°C] | SMILES
22.5 | 10.5 | 245 to 247 | COc1ccc(-c2c(-c3ccc(S(C)(=O)=O)cc3)n(C)n(C)c2=O)cc1 [Example 5, 5-(4-methanesulfonylphenyl)-4-(4-methoxyphenyl)-1,2-dimethyl-1,2-dihydropyrazole-3-one]
13.2 | 22.6 | 210 to 212 | Cn1c(-c2ccc(S(C)(=O)=O)cc2)c(-c2ccccc2)c(=O)n1C [Example 6, 5-(4-methanesulfonylphenyl)-1,2-dimethyl-4-phenyl-1,2-dihydropyrazole-3-one]
12.5 | 36.5 | 247 to 249 | Cc1ccc(-c2c(-c3ccc(S(C)(=O)=O)cc3)n(C)n(C)c2=O)cc1 [Example 7, 5-(4-methanesulfonylphenyl)-1,2-dimethyl-4-(4-methylphenyl)-1,2-dihydropyrazole-3-one]
– | – | 240 to 242 | Cn1c(-c2ccc(S(C)(=O)=O)cc2)c(-c2ccc(Cl)c(Cl)c2)c(=O)n1C [Example 8, 4-(3,4-dichlorophenyl)-5-(4-methanesulfonylphenyl)-1,2-dimethyl-1,2-dihydropyrazole-3-one]

SMILES | inhibition at 0.01 µM (COX-2) [%] | inhibition at 1 µM (COX-1) [%] | melting point [°C]
Cc1onc(-c2ccccc2)c1-c1ccc(S(N)(=O)=O)cc1 [Reference (Valdecoxib), Valdecoxib, reference compound] | – | 28.8 | –
